Literature values as cited in US12414981B2, “JNK inhibitors for use in treating and preventing neurodegenerative disorders” (Northwestern University, priority 2021, dated 2025).

Details: in vivo

Oc1c2ccccc2c2c3c(cccc13)N=N2 [SP600125, anthra [1,9]pyrazol-6 (2H)-one]
crosses the blood-brain barrier: crosses the blood-brain barrier
